Assay results taken from patent US8334316B2, “Substituted organosulfur compounds and methods of using thereof” (ACEA Biosciences, Inc., priority 2004, dated 2012).
Values joined by “and” are separate entries in the source; they are usually repeats but may differ in a detail not shown here. Equal values may be shown once.

Tests used:
[1] = system: purified bovine brain tubulin; experiment: In vitro microtubule assembly assay with pure (MAP-free) tubulin, light scattering OD400; type: biochemical
Experimental: Microtubule Assembly Assays. Microtubule seeds were synthesized by incubating purified bovine brain tubulin with 1 mM GTP, 10% glycerol and 10% DMSO at 35° C. for 30 minutes, followed by shearing by passing the assembled microtubules 6 times through a 27 gauge needle. Microtubule assembly was assayed by adding 27.5 ul of microtubule seeds to spectrophotometer cuvettes (maintained at 35° C.) containing 247.5 ul purified bovine brain tubulin in a PEM-100 buffer (100 mM Pipes pH=6.8, 1 mM […], 1 mM MgSO4) supplemented with 1 mM GTP (and drug where applicable) and monitoring the OD400 for 2 hours. Since the compounds are dissolved in DMSO and DMSO can have a significant effect on microtubule assembly, DMSO was added to all cuvettes so as to equal the largest volume of drug added to reactions. It should be noted that the initial velocity of the microtubule assembly reactions is so fast that one can not always catch the initial rise on the light scattering profile because it is occurring while samples are being prepared. However, all samples start at the same optical density, since they are identical with the exception of the drug being introduced.

[2] = system: ao10/17 human ovarian cancer; experiment: ao10/17 human ovarian cancer xenograft in nude mice (Example 4); type: in vivo; settings: for tumor inhibition rate %: vs solvent control
Experimental: Only female mice were used in this study. […] The high, middle and low doses of ACEA100108 were 50, […] and 8 mg/kg/d, respectively.
Preparation and Administration of Test Compounds. […] The high, middle and low dose of compound ACEA100108 was 50, 20 and 8 mg/kg, respectively.
The tumor tissues were grounded in normal saline (1:6 for tumor volume to saline volume) and tumor cell suspensions were prepared in the normal saline.
For the human ovarian cancer xenograft model, all used materials, including animal food, animal cage, supporting materials and apparatus contacted by animals, were high-pressure sterilized. Nude mice were maintained in laminar flow shelves under SPF condition. After tumor transplantation, mouse weight and tumor size in each compound dosage group were dynamically monitored and plotted. The tumor size was determined by measuring the major axis (a) and minor axis (b) of the tumor, and tumor volume was calculated according to the equation (3) in Example 3.

[3] = system: P388 lymphocytic leukemia; experiment: Murine P388 lymphocytic leukemia model (intraperitoneal transplantation), life span; type: in vivo, mouse; settings: for Average life span X ± SD: observed within 30 days; for Life span ratio %: vs solvent control
Experimental: Both male and female mice were used.
Preparation and Administration of Test Compounds.
To prepare cancer cells for the P388 murine lymphocytic leukemia model, ascites of a P388 leukemia-bearing mouse were removed under sterile condition. The ascites were diluted in normal saline (1:6 for ascites to normal saline) to prepare cell suspension. 0.2 mL of the cell suspension was then injected intraperitoneally. […] The life span of carrier mice was determined within 30 days. The life span ratio comparing to the negative control group of the carrier mice in each compound treatment group was calculated according to the formula: Life span ratio %=average life span for the compound treatment group/average life span for the negative control group×100% (4)

[4] = 8 mg/kg iv x7 qd, 7 D after transplantation
[5] = 20 mg/kg iv x7 qd, 7 D after transplantation
[6] = 50 mg/kg iv x7 qd, 7 D after transplantation

Fc1ccc(CSSSCc2ccc(F)cc2)cc1 [ACEA100108, Di(p-fluorobenzyl)trisulfide]
Effect on extent of microtubule assembly ([1]; 27 uM): marked inhibitory effect
Effect on microtubule assembly ([1]; lower dosages): minimal effects upon microtubule assembly
Body weight of mice ([2]; 8 mg/kg iv x7 qd, 0 d (beginning)): 17.7 g and 17.7 ± 0.5 g
Mice with palpable tumor / total mice [2, 4]: 3/6
Tumor volume (cm^3) [2, 4]: 0.01 cm^3
Body weight of mice ([2]; 8 mg/kg iv x7 qd, 7 d): 19 ± 0.6 g
Body weight of mice ([2]; 8 mg/kg iv x7 qd, 14 d): 20.5 ± 1 g
Tumor volume (cm^3) ([2]; 8 mg/kg iv x7 qd, 14 d): 0.048 ± 0.03 cm^3
Body weight of mice ([2]; 8 mg/kg iv x7 qd, 21 d): 21.2 ± 0.8 g
Tumor volume (cm^3) ([2]; 8 mg/kg iv x7 qd, 21 d): 0.249 ± 0.05 cm^3
Tumor volume (cm^3) ([2]; 8 mg/kg iv x7 qd, 24 d): 0.89 ± 0.39 cm^3
Body weight of mice ([2]; 8 mg/kg iv x7 qd, 24 d (end)): 22.2 g and 22.2 ± 0.8 g
Tumor weight ([2]; 8 mg/kg/d iv x7 qd): 0.942 ± 0.14 g
tumor inhibition rate % ([2]; 8 mg/kg/d iv x7 qd): 33.19%
Mice with palpable tumor / total mice [2, 5]: 2/6
Tumor volume (cm^3) [2, 5]: 0.01 cm^3
Body weight of mice ([2]; 20 mg/kg iv x7 qd, 7 d): 18.3 ± 0.8 g
Body weight of mice ([2]; 20 mg/kg iv x7 qd, 14 d): 19.8 ± 0.8 g
Tumor volume (cm^3) ([2]; 20 mg/kg iv x7 qd, 14 d): 0.03 ± 0.02 cm^3
Body weight of mice ([2]; 20 mg/kg iv x7 qd, 21 d): 20.5 ± 1 g
Tumor volume (cm^3) ([2]; 20 mg/kg iv x7 qd, 21 d): 0.206 ± 0.03 cm^3
Tumor volume (cm^3) ([2]; 20 mg/kg iv x7 qd, 24 d): 0.402 ± 0.1 cm^3
Body weight of mice ([2]; 20 mg/kg iv x7 qd, 24 d (end)): 22.0 g and 22.0 ± 1.4 g
Tumor weight ([2]; 20 mg/kg/d iv x7 qd): 0.752 ± 0.12 g
tumor inhibition rate % ([2]; 20 mg/kg/d iv x7 qd): 46.67%
Body weight of mice ([2]; 50 mg/kg iv x7 qd, 0 d (beginning)): 17.2 g and 17.2 ± 0.8 g
Mice with palpable tumor / total mice [2, 6]: 1/6
Tumor volume (cm^3) [2, 6]: 0.01 cm^3
Body weight of mice ([2]; 50 mg/kg iv x7 qd, 7 d): 16.7 ± 0.8 g
Body weight of mice ([2]; 50 mg/kg iv x7 qd, 14 d): 17.8 ± 1.5 g
Mice with palpable tumor / total mice ([2]; 50 mg/kg iv x7 qd, 14 d): 6/6
Tumor volume (cm^3) ([2]; 50 mg/kg iv x7 qd, 14 d): 0.01 cm^3
Body weight of mice ([2]; 50 mg/kg iv x7 qd, 21 d): 19.3 ± 1 g
Tumor volume (cm^3) ([2]; 50 mg/kg iv x7 qd, 21 d): 0.148 ± 0.02 cm^3
Tumor volume (cm^3) ([2]; 50 mg/kg iv x7 qd, 24 d): 0.316 ± 0.06 cm^3
Body weight of mice ([2]; 50 mg/kg iv x7 qd, 24 d (end)): 21.3 g and 21.3 ± 1.2 g
Tumor weight ([2]; 50 mg/kg/d iv x7 qd): 0.657 ± 0.13 g
tumor inhibition rate % ([2]; 50 mg/kg/d iv x7 qd): 53.40%
animal No. beginning/end (survivors) ([3]; 12.5 mg/kg/d iv x7 qd): 10/0
Average life span X ± SD ([3]; 12.5 mg/kg/d iv x7 qd): 10.6 ± 0.84
Life span ratio % ([3]; 12.5 mg/kg/d iv x7 qd): 109.28%
animal No. beginning/end (survivors) ([3]; 25 mg/kg/d iv x7 qd): 10/0
Average life span X ± SD ([3]; 25 mg/kg/d iv x7 qd): 10.4 ± 1.17
Life span ratio % ([3]; 25 mg/kg/d iv x7 qd): 107.22%
animal No. beginning/end (survivors) ([3]; 50 mg/kg/d iv x7 qd): 10/0
Average life span X ± SD ([3]; 50 mg/kg/d iv x7 qd): 10.3 ± 0.95
Life span ratio % ([3]; 50 mg/kg/d iv x7 qd): 106.18%
Anticancer effect on P388 mouse leukemia model ([3]; 50, 25, 12.5 mg/kg iv x7 qd): did not exhibit anticancer effect

c1ccc(CSSSCc2ccccc2)cc1 [DBTS, Dibenzyl trisulfide]
Effect on extent of microtubule assembly ([1]; all doses (especially prominent at 9 uM)): inhibit the extent of microtubule assembly significantly
Body weight of mice ([2]; 50 mg/kg iv x7 qd, 0 d (beginning), listed as ACEA100101): 17.3 g and 17.3 ± 1 g
Mice with palpable tumor / total mice [2, 6]: 2/6
Tumor volume (cm^3) [2, 6]: 0.01 cm^3
Body weight of mice ([2]; 50 mg/kg iv x7 qd, 7 d): 17.3 ± 1.4 g
Body weight of mice ([2]; 50 mg/kg iv x7 qd, 14 d): 18.8 ± 1.2 g
Mice with palpable tumor / total mice ([2]; 50 mg/kg iv x7 qd, 14 d): 6/6
Tumor volume (cm^3) ([2]; 50 mg/kg iv x7 qd, 14 d): 0.01 cm^3
Body weight of mice ([2]; 50 mg/kg iv x7 qd, 21 d): 19.5 ± 1 g
Tumor volume (cm^3) ([2]; 50 mg/kg iv x7 qd, 21 d): 0.129 ± 0.01 cm^3
Tumor volume (cm^3) ([2]; 50 mg/kg iv x7 qd, 24 d): 0.225 ± 0.04 cm^3
Body weight of mice ([2]; 50 mg/kg iv x7 qd, 24 d (end), listed as ACEA100101): 21.3 g and 21.3 ± 1.2 g
Tumor weight ([2]; 50 mg/kg/d iv x7 qd): 0.602 ± 0.10 g
tumor inhibition rate % ([2]; 50 mg/kg/d iv x7 qd): 57.30%
animal No. beginning/end (survivors) ([3]; 50 mg/kg/d iv x7 qd): 10/0
Average life span X ± SD ([3]; 50 mg/kg/d iv x7 qd): 10.6 ± 1.26
Life span ratio % ([3]; 50 mg/kg/d iv x7 qd): 109.28%

Cc1cccc(CSSSCc2cccc(C)c2)c1 [ACEA100116, di(m-methylbenzyl)trisulfide]
Effect on microtubule assembly ([1]; 9 uM and 27 uM): promotes microtubule assembly

CC(=O)O[C@H]1C(=O)[C@@]2(C)[C@H]([C@H](OC(=O)c3ccccc3)[C@]3(O)C[C@H](OC(=O)[C@H](O)[C@@H](NC(=O)c4ccccc4)c4ccccc4)C(C)=C1C3(C)C)[C@]1(OC(C)=O)CO[C@@H]1C[C@@H]2O [Taxol, paclitaxel, reference compound]
Tumor volume (cm^3) ([2]; 10 mg/kg iv x7 qd, 7 D after transplantation): 0.01 cm^3
Tumor volume (cm^3) ([2]; 10 mg/kg iv x7 qd, 14 d): 0.033 ± 0.02 cm^3
Tumor volume (cm^3) ([2]; 10 mg/kg iv x7 qd, 21 d): 0.196 ± 0.03 cm^3
Tumor volume (cm^3) ([2]; 10 mg/kg iv x7 qd, 24 d): 0.349 ± 0.08 cm^3
Tumor weight ([2]; 10 mg/kg/d iv x7 qd): 0.77 ± 0.12 g
tumor inhibition rate % ([2]; 10 mg/kg/d iv x7 qd): 45.39%
animal No. beginning/end (survivors) ([3]; 10 mg/kg/d iv x7 qd): 10/0
Average life span X ± SD ([3]; 10 mg/kg/d iv x7 qd): 10.5 ± 1.18
